Assays:
CYP2C19 = CYP2C19 (Homo sapiens, UniProt P33261); experiment: CYP2C19 inhibition (fluorescent substrate); type: in vitro ADME; settings: CYP2C19, CEC substrate; read-out: Cyp IC50 2C19
In short: (§1)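 10-pt 1:1 serial dilution in co-factor mix (DMSO stock 100 mM); 10 min preincubation, 37 °C; reaction at 37 °C. Readout: fluorescent metabolite of probe substrate. IC50 from signal vs [compound].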

B-Raf = B-Raf (Homo sapiens, UniProt P15056); experiment: B-Raf biochemical kinase inhibition (AlphaScreen, biotin-MEK1 substrate); settings: 100 μM ATP
B-Raf, sequence (P15056 whole entry): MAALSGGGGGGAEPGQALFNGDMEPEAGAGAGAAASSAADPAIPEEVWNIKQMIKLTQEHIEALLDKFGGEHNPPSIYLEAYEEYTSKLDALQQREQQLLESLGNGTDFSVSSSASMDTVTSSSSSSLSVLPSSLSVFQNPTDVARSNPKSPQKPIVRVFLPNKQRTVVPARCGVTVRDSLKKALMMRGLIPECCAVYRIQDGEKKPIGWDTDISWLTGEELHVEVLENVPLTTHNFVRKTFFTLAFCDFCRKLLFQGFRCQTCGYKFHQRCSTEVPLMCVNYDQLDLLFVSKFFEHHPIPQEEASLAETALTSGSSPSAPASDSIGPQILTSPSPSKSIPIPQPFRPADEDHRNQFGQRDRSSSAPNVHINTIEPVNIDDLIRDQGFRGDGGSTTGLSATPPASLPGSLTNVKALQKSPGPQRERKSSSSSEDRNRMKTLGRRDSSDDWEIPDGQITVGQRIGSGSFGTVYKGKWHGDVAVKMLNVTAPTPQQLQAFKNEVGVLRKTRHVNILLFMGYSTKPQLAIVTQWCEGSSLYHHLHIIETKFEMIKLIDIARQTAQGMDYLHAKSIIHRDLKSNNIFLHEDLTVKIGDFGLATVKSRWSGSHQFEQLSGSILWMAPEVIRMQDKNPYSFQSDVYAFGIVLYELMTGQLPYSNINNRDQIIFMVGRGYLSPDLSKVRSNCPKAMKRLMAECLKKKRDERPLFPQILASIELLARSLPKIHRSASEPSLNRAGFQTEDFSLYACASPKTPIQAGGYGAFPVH
In short: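 Eight-point compound series (made from a 0.1 mM DMSO stock) tested against each Raf enzyme with biotin-MEK1 substrate and 100 μM final ATP.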

CYP1A2 = target: T1, CYP1A2 (Homo sapiens, UniProt P05177); experiment: CYP1A2 inhibition (fluorescent substrate); type: in vitro ADME; settings: CYP1A2, CEC substrate; read-out: Cyp IC50 1A2
T1 sequence (P05177 1-516): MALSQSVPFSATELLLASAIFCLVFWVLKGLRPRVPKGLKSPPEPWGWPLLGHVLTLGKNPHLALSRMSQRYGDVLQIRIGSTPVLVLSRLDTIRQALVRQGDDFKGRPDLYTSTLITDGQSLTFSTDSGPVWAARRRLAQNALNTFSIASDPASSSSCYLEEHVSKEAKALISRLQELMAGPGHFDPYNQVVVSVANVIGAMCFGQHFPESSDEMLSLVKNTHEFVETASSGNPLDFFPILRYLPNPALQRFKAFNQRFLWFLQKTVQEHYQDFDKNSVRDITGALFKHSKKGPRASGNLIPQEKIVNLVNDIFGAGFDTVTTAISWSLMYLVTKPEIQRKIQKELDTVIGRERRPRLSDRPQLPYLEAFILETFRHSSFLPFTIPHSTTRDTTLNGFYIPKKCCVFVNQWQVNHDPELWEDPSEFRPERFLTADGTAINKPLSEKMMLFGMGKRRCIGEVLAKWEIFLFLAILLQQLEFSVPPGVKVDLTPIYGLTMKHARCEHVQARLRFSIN
In short: as §1

[1] = tested on: COLO205 colon adenocarcinoma cells (B-Raf V600E); experiment: COLO205 cell growth inhibition (ATPlite); type: cell-based; settings: Homo sapiens, COLO 205, 72 h; COLO205, 3 days incubation
In short: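 ATPlite luminescence, taken as a cell-number measure, gave IC50 values after a 3-day 37° C, 5% CO2 incubation. Compounds were tested as 8-point threefold titrations, highest final concentration 10 μM, added to cells seeded the day before.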

CYP2C19, sequence (P33261 whole entry): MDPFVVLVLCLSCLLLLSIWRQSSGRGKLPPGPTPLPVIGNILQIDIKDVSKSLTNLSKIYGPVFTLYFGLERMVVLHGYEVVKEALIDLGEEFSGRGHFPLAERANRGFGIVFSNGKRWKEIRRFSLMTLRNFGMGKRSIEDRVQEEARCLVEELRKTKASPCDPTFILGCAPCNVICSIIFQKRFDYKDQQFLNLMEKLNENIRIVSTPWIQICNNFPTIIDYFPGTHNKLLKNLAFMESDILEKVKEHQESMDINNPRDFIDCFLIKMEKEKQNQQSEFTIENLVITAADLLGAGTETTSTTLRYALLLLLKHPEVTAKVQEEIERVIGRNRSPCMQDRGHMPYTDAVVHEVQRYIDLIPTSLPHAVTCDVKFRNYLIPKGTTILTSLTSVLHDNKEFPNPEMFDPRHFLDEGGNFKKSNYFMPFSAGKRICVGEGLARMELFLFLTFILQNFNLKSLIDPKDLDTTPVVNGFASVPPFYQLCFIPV

IC50 (CYP2C19)	IC50 (B-Raf)	IC50 (CYP1A2)	IC50 [1]	Structure (SMILES)
5 to 10 µM	< 0.01 µM	> 10 µM	< 0.1 µM	CCCS(=O)(=O)Nc1ccc(F)c(C(=O)c2c[nH]c3ncc(-c4ccc(S(=O)(=O)NC5CC5)cc4)cc23)c1F [P-2168, N-Cyclopropyl-4-{3-[2,6-difluoro-3-(propane-1-sulfonylamino)-benzoyl]-1H-pyrrolo[2,3-b]pyridin-5-yl}-benzenesulfonamide]
> 10 µM	< 0.1 µM	> 10 µM	< 10 µM	O=C(c1c(F)ccc(NS(=O)(=O)c2c(F)cccc2F)c1F)c1c[nH]c2nccc(Cl)c12 [P-2033, N-[3-(4-Chloro-1H-pyrrolo[2,3-b]pyridine-3-carbonyl)-2,4-difluoro-phenyl]-2,6-difluoro-benzenesulfonamide]
> 10 µM	< 0.01 µM	> 10 µM	< 1 µM	N#Cc1cnc2[nH]cc(C(=O)c3cccc(NS(=O)(=O)c4cccc(F)c4)c3F)c2c1 [P-2053, N-[3-(5-Cyano-1H-pyrrolo[2,3-b]pyridine-3-carbonyl)-2-fluoro-phenyl]-3-fluoro-benzenesulfonamide]
5 to 10 µM	< 0.01 µM	> 10 µM	< 0.1 µM	CCCS(=O)(=O)Nc1ccc(F)c(C(=O)c2c[nH]c3ncc(-c4ccc(S(C)(=O)=O)cc4)cc23)c1F [P-2183, Propane-1-sulfonic acid {2,4-difluoro-3-[5-(4-methanesulfonyl-phenyl)-1H-pyrrolo[2,3-b]pyridine-3-carbonyl]-phenyl}-amide]
> 10 µM	< 0.1 µM	> 10 µM	< 5 µM	Cc1cnc2[nH]cc(C(=O)c3c(F)ccc(NS(=O)(=O)c4c(F)cccc4F)c3F)c2c1 [P-2024, N-[2,4-Difluoro-3-(5-methyl-1H-pyrrolo[2,3-b]pyridine-3-carbonyl)-phenyl]-2,6-difluoro-benzenesulfonamide]
5 to 10 µM	< 0.01 µM	> 10 µM	< 0.1 µM	CCCS(=O)(=O)Nc1ccc(F)c(C(=O)c2c[nH]c3ncc(-c4ccc(S(=O)(=O)NC)cc4)cc23)c1F [P-2167, 4-{3-[2,6-Difluoro-3-(propane-1-sulfonylamino)-benzoyl]-1H-pyrrolo[2,3-b]pyridin-5-yl}-N-methyl-benzenesulfonamide]
5 to 10 µM	< 0.01 µM	> 10 µM	< 1 µM	CCCS(=O)(=O)Nc1ccc(F)c(C(=O)c2c[nH]c3ncc(-c4ccc(F)nc4)cc23)c1F [P-2155, Propane-1-sulfonic acid {2,4-difluoro-3-[5-(6-fluoro-pyridin-3-yl)-1H-pyrrolo[2,3-b]pyridine-3-carbonyl]-phenyl}-amide]
> 10 µM	< 0.1 µM	> 10 µM	< 5 µM	Cc1cnc2[nH]cc(C(=O)c3c(F)ccc(NS(=O)(=O)c4ccccc4F)c3F)c2c1 [P-2014, N-[2,4-Difluoro-3-(5-methyl-1H-pyrrolo[2,3-b]pyridine-3-carbonyl)-phenyl]-2-fluoro-benzenesulfonamide]
> 10 µM	< 0.01 µM	> 10 µM	< 1 µM	COc1ncc(-c2cnc3[nH]cc(C(=O)c4c(F)ccc(NS(=O)(=O)c5ccccc5F)c4F)c3c2)cn1 [P-2041, N-{2,4-Difluoro-3-[5-(2-methoxy-pyrimidin-5-yl)-1H-pyrrolo[2,3-b]pyridine-3-carbonyl]-phenyl}-2-fluoro-benzenesulfonamide]
> 10 µM	< 0.01 µM	> 10 µM	< 1 µM	N#Cc1ccnc2[nH]cc(C(=O)c3c(F)ccc(NS(=O)(=O)c4cc(F)ccc4F)c3F)c12 [P-2036, N-[3-(4-Cyano-1H-pyrrolo[2,3-b]pyridine-3-carbonyl)-2,4-difluoro-phenyl]-2,5-difluoro-benzenesulfonamide]
5 to 10 µM	< 0.01 µM	< 5 µM	< 1 µM	CCCS(=O)(=O)Nc1ccc(F)c(C(=O)c2c[nH]c3ncc(-c4ccc(N5CCCC5)nc4)cc23)c1F [P-2231, Propane-1-sulfonic acid {2,4-difluoro-3-[5-(6-pyrrolidin-1-yl-pyridin-3-yl)-1H-pyrrolo[2,3-b]pyridine-3-carbonyl]-phenyl}-amide]
> 10 µM	< 0.01 µM	> 10 µM	< 0.1 µM	COc1ncc(-c2cnc3[nH]cc(C(=O)c4c(F)ccc(NS(=O)(=O)c5cc(F)ccc5F)c4F)c3c2)cn1 [P-2042, N-{2,4-Difluoro-3-[5-(2-methoxy-pyrimidin-5-yl)-1H-pyrrolo[2,3-b]pyridine-3-carbonyl]-phenyl}-2,5-difluoro-benzenesulfonamide]
> 10 µM	< 0.1 µM	> 10 µM	< 5 µM	Cc1cnc2[nH]cc(C(=O)c3c(F)ccc(NS(=O)(=O)c4cccc(F)c4)c3F)c2c1 [P-2016, N-[2,4-Difluoro-3-(5-methyl-1H-pyrrolo[2,3-b]pyridine-3-carbonyl)-phenyl]-3-fluoro-benzenesulfonamide]
> 10 µM	< 0.1 µM	> 10 µM	< 1 µM	N#Cc1cnc2[nH]cc(C(=O)c3cccc(NS(=O)(=O)c4cc(F)ccc4F)c3F)c2c1 [P-2052, N-[3-(5-Cyano-1H-pyrrolo[2,3-b]pyridine-3-carbonyl)-2-fluoro-phenyl]-2,5-difluoro-benzenesulfonamide]
5 to 10 µM	< 0.01 µM	> 10 µM	< 1 µM	CCCS(=O)(=O)Nc1ccc(F)c(C(=O)c2c[nH]c3ncc(-c4ccc(NC(C)=O)nc4)cc23)c1F [P-2193, N-(5-{3-[2,6-Difluoro-3-(propane-1-sulfonylamino)-benzoyl]-1H-pyrrolo[2,3-b]pyridin-5-yl}-pyridin-2-yl)-acetamide]
> 10 µM	< 0.01 µM	> 10 µM	< 5 µM	COc1ccnc2[nH]cc(C(=O)c3c(F)ccc(NS(=O)(=O)c4cccc(F)c4)c3F)c12 [P-2023, N-[2,4-Difluoro-3-(4-methoxy-1H-pyrrolo[2,3-b]pyridine-3-carbonyl)-phenyl]-3-fluoro-benzenesulfonamide]
5 to 10 µM	< 0.01 µM	> 10 µM	< 1 µM	CCCS(=O)(=O)Nc1ccc(F)c(C(=O)c2c[nH]c3ncc(-c4cnn(Cc5ccccc5)c4)cc23)c1F [P-2190, Propane-1-sulfonic acid {3-[5-(1-benzyl-1H-pyrazol-4-yl)-1H-pyrrolo[2,3-b]pyridine-3-carbonyl]-2,4-difluoro-phenyl}-amide]
> 10 µM	< 0.01 µM	> 10 µM	< 5 µM	N#Cc1cnc2[nH]cc(C(=O)c3c(F)ccc(NS(=O)(=O)c4cccnc4)c3F)c2c1 [P-2072, Pyridine-3-sulfonic acid [3-(5-cyano-1H-pyrrolo[2,3-b]pyridine-3-carbonyl)-2,4-difluoro-phenyl]-amide]
> 10 µM	< 0.1 µM	> 10 µM	< 5 µM	N#Cc1cnc2[nH]cc(C(=O)c3c(F)ccc(NS(=O)(=O)c4c(F)cccc4F)c3F)c2c1 [P-2029, N-[3-(5-Cyano-1H-pyrrolo[2,3-b]pyridine-3-carbonyl)-2,4-difluoro-phenyl]-2,6-difluoro-benzenesulfonamide]
5 to 10 µM	< 0.01 µM	> 10 µM	< 1 µM	CCCc1ccc(-c2cnc3[nH]cc(C(=O)c4c(F)ccc(NS(=O)(=O)CCC)c4F)c3c2)cn1 [P-2224, Propane-1-sulfonic acid {2,4-difluoro-3-[5-(6-propyl-pyridin-3-yl)-1H-pyrrolo[2,3-b]pyridine-3-carbonyl]-phenyl}-amide]
> 10 µM	< 0.01 µM	> 10 µM	< 1 µM	CCCS(=O)(=O)Nc1cccc(C(=O)c2c[nH]c3ncc(-c4cnc(N(C)C)nc4)cc23)c1F [P-2408, Propane-1-sulfonic acid {3-[5-(2-dimethylamino-pyrimidin-5-yl)-1H-pyrrolo[2,3-b]pyridine-3-carbonyl]-2-fluoro-phenyl}-amide]

Structure (SMILES)	IC50 (CYP2C19)	IC50 (B-Raf)	IC50 (CYP1A2)	IC50 [1]
CCCS(=O)(=O)Nc1ccc(F)c(C(=O)c2c[nH]c3ncc(-c4ccc(NS(C)(=O)=O)cc4)cc23)c1F [P-2165, Propane-1-sulfonic acid {2,4-difluoro-3-[5-(4-methanesulfonylamino-phenyl)-1H-pyrrolo[2,3-b]pyridine-3-carbonyl]-phenyl}-amide]	5 to 10 µM	< 0.01 µM	> 10 µM	< 1 µM

Source: patent US8198273B2, “Compounds and methods for kinase modulation, and indications therefor” (Plexxikon Inc., priority 2009, dated 2012)
